Results published in US8591886B2, “Combination therapies employing GITR binding molecules” (GITR, Inc., priority 2007, dated 2013).

Tested on: CT26 cells
Assay: CT26 colon carcinoma flank tumor model, Gemzar and 2F8
Assay type: in vivo, Mice
Conditions: Kaplan-Meier; Gemzar 80 mg/kg Day 15; 2F8 alone 0.4 mg I.P. Days 15, 16 and 17; FIG. 2
Method: One group of control mice was untreated. The group of mice receiving Gemzar was treated with 80 mg/kg Gemzar on Day 15.
GraphPad Prism 4 software was used to plot Kaplan-Meir survival curves and to confirm the median survival times for the groups.

Nc1ccn([C@@H]2O[C@H](CO)[C@@H](O)C2(F)F)c(=O)n1 [Gemzar, gemcitabine]
median survival: 31 days
